Tests used:
[1] = system: direct sown rice; test: Herbicidal effect test by foliage treatment; assay type: in vivo, Oryza sativa; conditions: 1.6 g/a; foliage treatment after growth of 14 days; 3 weeks after treatment
Procedure, shortened: (§1)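 Seeds sown in sterilized diluvial soil, covered with about 1.5 cm soil and grown 14 days in a greenhouse at 25 to 30° C. Foliage then sprayed uniformly with water-diluted wettable powder at a predetermined formulation amount; herbicidal effect scored 3 weeks after treatment.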

[2] = system: direct sown rice; test: Herbicidal effect test by soil treatment; assay type: in vivo, Oryza sativa; conditions: 1.6 g/a, 3 weeks after treatment
Procedure, shortened: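 Seeds were sown in sterilized diluvial soil and covered with about 1.5 cm of soil. A wettable powder diluted in water to a predetermined formulation amount was sprayed uniformly on the soil surface. Herbicidal effect was scored visually 3 weeks after treatment.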

[3] = system: Ambrosia elatior; test: Herbicidal effect test by foliage treatment; assay type: in vivo; conditions: 1.6 g/a; foliage treatment after growth of 14 days; 3 weeks after treatment
Procedure, shortened: as §1

[4] = system: Echinochloa crus-galli; test: Herbicidal effect test by foliage treatment; assay type: in vivo; conditions: 1.6 g/a; foliage treatment after growth of 14 days; 3 weeks after treatment
Procedure, shortened: as §1

[5] = system: Stellaria media; test: Herbicidal effect test by foliage treatment; assay type: in vivo; conditions: 1.6 g/a; foliage treatment after growth of 14 days; 3 weeks after treatment
Procedure, shortened: as §1

[6] = system: Chenopodium album; test: Herbicidal effect test by foliage treatment; assay type: in vivo; conditions: 1.6 g/a; foliage treatment after growth of 14 days; 3 weeks after treatment
Procedure, shortened: as §1

[7] = system: corn (Zea mays); test: Herbicidal effect test by foliage treatment; assay type: in vivo; conditions: 1.6 g/a; foliage treatment after growth of 14 days; 3 weeks after treatment
Procedure, shortened: as §1

[8] = system: Abutilon avicennae; test: Herbicidal effect test by foliage treatment; assay type: in vivo; conditions: 1.6 g/a; foliage treatment after growth of 14 days; 3 weeks after treatment
Procedure, shortened: as §1

[9] = system: Triticum aestivum (wheat); test: Herbicidal effect test by foliage treatment; assay type: in vivo; conditions: 1.6 g/a; foliage treatment after growth of 14 days; 3 weeks after treatment
Procedure, shortened: as §1

[10] = system: Avena fatua; test: Herbicidal effect test by foliage treatment; assay type: in vivo; conditions: 1.6 g/a; foliage treatment after growth of 14 days; 3 weeks after treatment
Procedure, shortened: as §1

[11] = system: Amaranthus retroflexus; test: Herbicidal effect test by foliage treatment; assay type: in vivo; conditions: 1.6 g/a; foliage treatment after growth of 14 days; 3 weeks after treatment
Procedure, shortened: as §1

[12] = system: soybean (Glycine max); test: Herbicidal effect test by foliage treatment; assay type: in vivo; conditions: 1.6 g/a; foliage treatment after growth of 14 days; 3 weeks after treatment
Procedure, shortened: as §1

[13] = system: Black-grass; test: Herbicidal effect test by foliage treatment; assay type: in vivo; conditions: 1.6 g/a; foliage treatment after growth of 14 days; 3 weeks after treatment
Procedure, shortened: as §1

[14] = system: Setaria viridis; test: Herbicidal effect test by foliage treatment; assay type: in vivo; conditions: 1.6 g/a; foliage treatment after growth of 14 days; 3 weeks after treatment
Procedure, shortened: as §1

[15] = system: Beta vulgaris (beet); test: Herbicidal effect test by foliage treatment; assay type: in vivo; conditions: 1.6 g/a; foliage treatment after growth of 14 days; 3 weeks after treatment
Procedure, shortened: as §1

[16] = system: Digitaria adscendes; test: Herbicidal effect test by foliage treatment; assay type: in vivo; conditions: 1.6 g/a; foliage treatment after growth of 14 days; 3 weeks after treatment
Procedure, shortened: as §1

[17] = system: Polygonum blumei; test: Herbicidal effect test by foliage treatment; assay type: in vivo; conditions: 1.6 g/a; foliage treatment after growth of 14 days; 3 weeks after treatment
Procedure, shortened: as §1

[18] = system: Echinochloa crus-galli; test: Herbicidal effect test in submerged condition by treatment during weed-growth stage (1); assay type: in vivo; conditions: 0.64 g/a, treated at 1st to 2nd leaf stage, 3 weeks after treatment
Procedure, shortened: (§2)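 Paddy-soil pots flooded to 4 cm water depth were sown and grown in a greenhouse at 25 to 30° C until weeds reached 1st to 2nd leaf stage. A wettable powder diluted in water to a predetermined formulation amount was applied to the water surface. Herbicidal effect was scored 3 weeks after treatment against set criteria.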

[19] = system: Monochoria vaginalis; test: as above; assay type: in vivo; conditions: 0.64 g/a, treated at 1st to 2nd leaf stage, 3 weeks after treatment
Procedure, shortened: as §2

[20] = system: Scirpus juncoides; test: as above; assay type: in vivo; conditions: 0.64 g/a, treated at 1st to 2nd leaf stage, 3 weeks after treatment
Procedure, shortened: as §2

[21] = system: Echinochloa crus-galli; test: Herbicidal effect test in submerged condition by treatment before weed-generation (2); assay type: in vivo; conditions: 0.3 g/a; submerged paddy soil pot, water surface treated on day of sowing; 3 weeks after treatment
Method: (§3) Herbicidal Effect Test in Submerged Condition by Treatment Before Weed-Generation (2)
(§4) Paddy surface soil was placed in a plastic pot of 1/10000 are, water was poured therein and mixed. After seeds of Scirpus juncoides were sown, paddy surface soil was added by 2 cm, and submerged with water, and then seeds of Echinochloa crus-galli, Scirpus juncoides, Monochoria vaginalis, Rotala indica and Lindernia pyxidaria were sown together. In addition, rice seedlings at 2.5th leaf stage were transplanted, and fixed to the paddy surface in a state where the roots were exposed on the other side. On the day when the seeds were sown, the wettable powder of the present invention prepared according to Formulation Example 1 was diluted with water so as to give a predetermined formulation amount, and the surface of the water was treated with the diluted wettable powder. The plants were grown by putting the pot in a green house at 25 to 30° C. The herbicidal effect for each plant was investigated 3 weeks after treatment with the herbicide according to the criteria indicated in Test Example 1.

[22] = system: Rotala indica; test: as above; assay type: in vivo; conditions: 0.3 g/a; submerged paddy soil pot, water surface treated on day of sowing; 3 weeks after treatment
Method: as §3, §4

[23] = system: Monochoria vaginalis; test: as above; assay type: in vivo; conditions: 0.3 g/a; submerged paddy soil pot, water surface treated on day of sowing; 3 weeks after treatment
Method: as §3, §4

[24] = system: transplanted rice (Oryza sativa); test: as above; assay type: in vivo; conditions: 0.3 g/a; submerged paddy soil pot, rice seedlings at 2.5th leaf stage transplanted; 3 weeks after treatment
Method: as §3, §4

[25] = system: Scirpus juncoides; test: as above; assay type: in vivo; conditions: 0.3 g/a; submerged paddy soil pot, water surface treated on day of sowing; 3 weeks after treatment
Method: as §3, §4

[26] = system: Lindernia pyxidaria; test: as above; assay type: in vivo; conditions: 0.3 g/a; submerged paddy soil pot, water surface treated on day of sowing; 3 weeks after treatment
Method: as §3, §4

COc1cc(OC)nc(NC(=O)NS(=O)(=O)c2c(C3=NOCC(C)O3)c(Cl)nn2C)n1 (centres unmarked) [Compound 1, N-((4,6-dimethoxypyrimidin-2-yl)aminocarbonyl)-3-chloro-1-methyl-4-(5-methyl-5H,6H-1,4,2-dioxadin-3-yl)pyrazole-5-sulfonamide]
herbicidal effect, d: direct sown rice [1]: 0 (Herbicidal rate 5% or less (little effect)) | herbicidal effect, d: direct sown rice [2]: 2 (Herbicidal rate 20% or more and less than 40%) | herbicidal effect, I: Ambrosia elatior [3]: 5 (Herbicidal rate 90% or more (almost complete death)) | herbicidal effect, A: Echinochloa crus-galli [4]: 5 (Herbicidal rate 90% or more (almost complete death)) | herbicidal effect, M: Stellaria media [5]: 5 (Herbicidal rate 90% or more (almost complete death)) | herbicidal effect, K: Chenopodium album [6]: 4 (Herbicidal rate 70% or more and less than 90%) | herbicidal effect, b: corn (Zea mays) [7]: 5 (Herbicidal rate 90% or more (almost complete death)) | herbicidal effect, H: Abutilon avicennae [8]: 5 (Herbicidal rate 90% or more (almost complete death)) | herbicidal effect, e: Triticum aestivum (wheat) [9]: 2 (Herbicidal rate 20% or more and less than 40%) | herbicidal effect, F: Avena fatua [10]: 1 (Herbicidal rate 5% or more and less than 20%) | herbicidal effect, J: Amaranthus retroflexus [11]: 5 (Herbicidal rate 90% or more (almost complete death)) | herbicidal effect, c: soybean (Glycine max) [12]: 5 (Herbicidal rate 90% or more (almost complete death)) | herbicidal effect, G: Black-grass [13]: 4 (Herbicidal rate 70% or more and less than 90%) | herbicidal effect, E: Setaria viridis [14]: 3 (Herbicidal rate 40% or more and less than 70%) | herbicidal effect, f: Beta vulgaris (beet) [15]: 5 (Herbicidal rate 90% or more (almost complete death)) | herbicidal effect, D: Digitaria adscendes [16]: 5 (Herbicidal rate 90% or more (almost complete death)) | herbicidal effect, L: Polygonum blumei [17]: 5 (Herbicidal rate 90% or more (almost complete death)) | herbicidal effect, A: Echinochloa crus-galli [18]: 5 (Herbicidal rate 90% or more (almost complete death)) | herbicidal effect, C: Monochoria vaginalis [19]: 5 (Herbicidal rate 90% or more (almost complete death)) | herbicidal effect, B: Scirpus juncoides [20]: 5 (Herbicidal rate 90% or more (almost complete death)) | herbicidal effect, A: Echinochloa crus-galli [21]: 5 (Herbicidal rate 90% or more (almost complete death)) | herbicidal effect, N: Rotala indica [22]: 5 (Herbicidal rate 90% or more (almost complete death)) | herbicidal effect, C: Monochoria vaginalis [23]: 5 (Herbicidal rate 90% or more (almost complete death)) | herbicidal effect, a: transplanted rice (Oryza sativa) [24]: 0 (Herbicidal rate 5% or less (little effect)) | herbicidal effect, B: Scirpus juncoides [25]: 5 (Herbicidal rate 90% or more (almost complete death)) | herbicidal effect, O: Lindernia pyxidaria [26]: 5 (Herbicidal rate 90% or more (almost complete death))

Source: patent US7709636B2, “Pyrazole sulfonylurea compound and herbicide” (Nissan Chemical Industries, Ltd., priority 2004, dated 2010)
